Where a SMILES comes first, the peptide text is derived from it. Where no end group is shown, it is not given here.
Experiment: Biosimilar mucus-permeating assay, in vitro cell-free model
Type: in vitro ADME
Conditions: peptide 1 mM, OPA method; for Mucus permeability (in words): cell-free biosimilar mucus model, PBS pH 7.2, 25 ℃, verbal grade; for Cumulative mucus permeability at 60 min / Final cumulative mucus permeability at 240 min: cell-free, biosimilar mucus (0.3% PAA, 5% mucin, 3.1% BSA, 0.6% lipid mixture, Tween 80) on 10 KDa centrifugal filter, 1 mL, PBS pH 7.2, 470× g, 25 ℃, mean ± SEM, at least three times in triplicate
Experimental: An in vitro cell-free model was established in this study for the quantification of mucus-permeating property of peptides. Biosimilar mucus used in the model consisted of 0.3% (w/v) PAA, 5% (w/v) mucin, 3.1% (w/v) BSA, 0.6% (w/v) lipid mixture including 0.06% (w/v) linoleic acid, 0.36% (w/v) cholesterol, 0.18% (w/v) phosphatidylcholine, and Tween 80 (25% of lipid mixture, w/w). First, the lipid was mixed with Tween 80, whereafter PBS buffer with 150 mM NaCl (5 mM, pH 7.2) was slowly added under magnetic stirring (Cimarec, ThermoFisher Scientific, Waltham, MA USA). On the other hand, PAA was dissolved in PBS buffer prior to the addition of mucin under stirring, and pH adjusted to 7.0 using NaOH (1 M). After mixing the lipids and mucin suspension, BSA was added to finalize the biosimilar mucus and the pH was adjusted to 7.4. The mucus mixture was stored overnight at 4 ℃ before dialyzing (Fisherbrand Regenerated Cellulose Dialysis Tubing, MWCOs from 3500 to 14,000 Daltons) for 72 h against PBS buffer (5 mM, pH 7.2) containing 150 mM NaCl to remove unbound lipids and contaminating proteins from BSA. Mucus-permeating assay was conducted by firstly adding 3.8 mL of dialyzed mucus suspensions to the filter of the centrifugal unit (4 mL, 10 KDa cutoff, Amicon Ultra, Millipore Sigma) followed by centrifugation at 2935× g for 15 min to make the mucus settle down and completely cover the entire membrane before adding peptide solutions (1 mM, 1 mL) or 1 mL of PBS buffer as blank. Afterwards, the permeate during centrifugation at 25 ℃ and 470× g was collected every 15 min for 4 h. The peptide content in the permeate was measured using the OPA method. The mucus permeability of the peptides was quantified using Equation (2). (2) P=np−nb/nT×100 PP is the percentage permeability, np represents the permeated peptides (µmol), nb is the blank (µmol), and nT is the total loaded peptide amount (µmol).

Mucus permeability (in words) | Cumulative mucus permeability at 60 min [%] | Final cumulative mucus permeability at 240 min [%] | Molecule
high mucus permeability | 40 ± 17 | 92 ± 27 | CC(C)C[C@H](NC(=O)[C@H](CO)NC(=O)[C@H](C)NC(=O)[C@@H]1CCCN1)C(=O)O [Pep6, PASL] (H-PASL-OH)
low mucus permeability |  | 23 ± 6 | KIPAVF [Pep1, KIPAVF]
low mucus permeability |  | 13 ± 2 | CSCC[C@H](NC(=O)[C@@H](N)CCCCN)C(=O)N1CCC[C@H]1C(=O)N[C@H](C(=O)O)C(C)C [Pep5, KMPV] (H-KMPV-OH)
low mucus permeability |  | 21 ± 5 | CSCC[C@H](N)C(=O)N[C@@H](C)C(=O)N[C@@H](CC(N)=O)C(=O)N[C@H](C(=O)O)[C@@H](C)O [Pep2, MANT] (H-MANT-OH)
low mucus permeability |  | 51 ± 9 | QIGLF [Pep7, QIGLF]
high mucus permeability | 96 ± 30 | 142 ± 35 | C[C@@H](O)[C@H](N)C(=O)N[C@@H](CC(N)=O)C(=O)NCC(=O)N[C@@H](CCC(N)=O)C(=O)O [Pep4, TNGQ] (H-TNGQ-OH)

Molecule | Mucus permeability (in words) | Cumulative mucus permeability at 60 min [%] | Final cumulative mucus permeability at 240 min [%]
CSCC[C@H](NC(=O)[C@@H](N)Cc1ccc(O)cc1)C(=O)N[C@@H](CO)C(=O)N[C@H](C(=O)O)C(C)C [Pep3, YMSV] (H-YMSV-OH) | low mucus permeability |  | 44 ± 12

— article PMC8774657, “Peptide-Mucin Binding and Biosimilar Mucus-Permeating Properties” (Gels, 2021)
